Results reported in patent publication US20230219890A1, “BICYCLIC COMPOUNDS AND USE THEREOF” (Betta Pharmaceuticals Co.,Ltd, priority 2020, published 2023).

What follows are compounds tested on VEGFA (786-O cells) (assay: VEGFA ELISA Assay (IC50)). Details: 24 hours incubation, VEGFA in culture supernatant by ELISA, class symbols.
Format: cell-based
Procedure: 786-O cells in exponential growth phase were seeded in 96-well plate, the cell concentration was 65,000 cells per milliliter of culture medium, 180 ul per well. Compounds were serial diluted to the indicated concentration, and 20 ul compound solutions of different concentrations were added to the corresponding cell wells. The final compound concentrations were as follows (nM): 1.5, 4.6, 13.7, 41.2, 123.5, 370.4, 1111.1, 3333.3, 10000. After 24 hours of incubation, the cell culture supernatant was taken, and the VEGFA concentration was determined using an ELISA kit (purchased from abcam). Finally, the reaction was terminated, and the light absorbance value of each well was measured using a microplate reader at a wavelength of […], and IC50 was calculated by GraphPad Prism. Cell Titer-Glo reagent was used to measure cell viability.

| IC50 [nM] | Compound |
| --- | --- |
| 1500 to 10000 | OC1c2c(C(F)(F)F)cn(Cc3cc(F)cc(Cl)c3)c2CCC1(F)F (stereo not shown) [Example 29] |
| ≤ 500 | O[C@H]1c2c(C(F)(F)F)c(Cl)n(-c3ccc(F)c(Cl)c3)c2CCC1(F)F [Example 107, (S)-2-chloro-1-(3-chloro-54-fluorophenyl)-5,5-difluoro-3-(trifluoromethyl)-4,5,6,7-tetrahydro-1H-indol-4-ol] |

Same assay, conditions: Homo sapiens, 786-0, 24 h, 24 hours incubation, VEGFA in culture supernatant by ELISA, class symbols

| IC50 [nM] | Compound |
| --- | --- |
| ≤ 500 | N#Cc1cc(-n2cc(C(F)(F)F)c3c2CCC(F)(F)[C@@H]3F)ccc1F (single isomer, unassigned) [Example 197] |
| 500 to 1500 | N#Cc1cc(F)cc(-n2cc(C(F)(F)F)c3c2CCCC3O)c1 (stereo not shown) [Example 41, 3-fluoro-5-(4-hydroxy-3-(trifluoromethyl)-4,5,6,7-tetrahydo-1H-indol-1-yl)benzonitrile] |
| ≤ 500 | OC1c2c(-c3ccco3)cn(-c3cc(F)cc(Cl)c3)c2CCC1(F)F (stereo not shown) [Example 53, 1-(3-chloro-5-fluorophenyl)-5,5-difluoro-3-(furan-2-yl)-4,5,6,7-tetrahydro-1H-indol-4-ol] |
| 500 to 1500 | N#Cc1cc(-n2cc(-c3cncs3)c3c2CCC(F)(F)C3O)ccc1F (stereo not shown) [Example 54, 5-(5,5-difluoro-4-hydroxy-3-(thiazol-5-yl)-4,5,6,7-tetrahydro-1H-indol-1-yl)-2-fluorobenzonitrile] |
| > 1500 | CS(=O)(=O)c1nn(Cc2ccc(F)cc2)c2c1C(=O)CCC2 [Example 93, 1-(4-fluorobenzyl)-3-(methylsulfonyl)-1,5,6,7-tetrahydro-4H-indazol-4-one] |
| ≤ 500 | OC1c2c(C(F)(F)F)cn(-c3cc(F)cc(Cl)c3)c2CCC1(F)F (stereo not shown) [Example 97, 1-(3-chloro-5-fluorophenyl)-5,5-difluoro-3-(trifluoromethyl)-4,5,6,7-tetrahydro-1H-indol-4-ol] |
| ≤ 500 | CS(=O)(=O)c1cn(-c2cc(F)cc(Cl)c2)c2c1C(O)C(F)(F)CC2 (stereo not shown) [Example 109, 1-(3-chloro-5-fluorophenyl)-5,5-difluoro-3-(methylsulfonyl)-4,5,6,7-tetrahydro-1H-indol-4-ol] |
| ≤ 500 | OC1c2c(C(F)(F)F)cn(-c3cncc(F)c3)c2CC(F)C1F (stereo not shown) [Example 132, 5,6-difluoro-1-(5-fluoropyridin-3-yl)-3-(trifluoromethyl)-4,5,6,7-tetranydro-1H-indol-4-ol] |
| ≤ 500 | N#Cc1cc(F)cc(-n2cc(C(F)(F)F)c3c2CCC(F)C3O)c1 (stereo not shown) [Example 139, 3-fluoro-5-(5-fluoro-4-hydroxy-3-(trifluoromethyl)-4,5,6,7-tetrahydro-1H-indol-1-yl)benzonitrile] |
| ≤ 500 | OC1c2c(C(F)(F)F)cn(-c3ccc(F)c(F)c3)c2CCC1(F)F (stereo not shown) [Example 164] |
| 500 to 1500 | OC1c2c(C(F)(F)F)cn(-c3ccc(F)nc3)c2CCC1(F)F (stereo not shown) [Example 170] |
| 500 to 1500 | O[C@@H]1c2c(C(F)(F)F)cn(-c3ccc(F)c(C(F)F)c3)c2CCC1(F)F [Example 174, (R)-1-(3-(difluoromethyl)-4-fluorophenyl)-5,5-difluoro-3-(trifluoromethyl)-4,5,6,7-tetrahydro-1H-indol-4-ol] |
| ≤ 500 | N#CC1c2c(C(F)(F)F)cn(-c3ccc(F)cc3)c2CCC1(F)F (stereo not shown) [Example 178, 5,5-difluoro-1-(4-fluorophenyl)-3-(trifluoromethyl)-4,5,6,7-tetrahydro-1H-indole-4-carbonitrile] |

Further lines, the compound ahead of its results:

| Compound | IC50 [nM] |
| --- | --- |
| N#Cc1cc(-n2cc(I)c3c2CCC(F)(F)C3O)ccc1F (stereo not shown) [Example 5, 5-(5,5-difluoro-hydroxy-3-iodo-4,5,6,7-tetrahydro-1H-indol-1-yl)-2-fluorobenzonitrile] | 500 to 1500 |
| O=C1c2c(C(F)(F)F)cn(-c3cc(F)cc(Cl)c3)c2CCC1(F)F [Example 6, 1-(3-chloro-5-fluorophenyl)-5,5-difluoro-3-(trifluoromethyl)-1,5,6,7-tetrahydro-4H-indol-4-one] | 500 to 1500 |
| N#Cc1ccc(-n2cc(C(F)(F)F)c3c2CCC(F)(F)C3O)cc1 (stereo not shown) [Example 13, 4-(5,5-difluoro-4-hydroxy-3 (trifluoromethyl)-4,5,6,7-tetrahydro-1H-indol-1-yl)benzonitrile] | ≤ 500 |
| OC1c2c(C(F)(F)F)cn(-c3cc(F)cc(C(F)(F)F)c3)c2CCC1(F)F (stereo not shown) [Example 24] | ≤ 500 |
| Cn1cccc1-c1cn(-c2cc(F)cc(Cl)c2)c2c1C(O)C(F)(F)CC2 (stereo not shown) [Example 51, 1-(3-chloro-5-fluorophenyl)-5,5-difluoro-3-(1-methyl-1H-pyrrol-2-yl)-4,5,6,7-tetrahydro-1H-indol-4-ol] | 500 to 1500 |
| OC1c2c(C(F)(F)F)cc(-c3cc(F)cc(Cl)c3)n2CCC1F (stereo not shown) [Example 68, 3-(3-chloro-5-fluorophenyl)-7-fluoro-1-(trifluoromethyl)-5,6,7,8-tetrahydroindolizin-8-ol] | ≤ 500 |
| OC1c2c(C(F)(F)F)cc(-c3cc(F)cc(F)c3)n2CCC1(F)F (stereo not shown) [Example 76, 3-(3,5-difluorophenyl)-7,7-difluoro-1-(trifluoromethyl)-5,6,7,8-tetrahydroindolizin-8-ol] | ≤ 500 |
| OC1c2c(C(F)(F)F)nn(-c3cc(F)cc(F)c3)c2CCC1(F)F (stereo not shown) [Example 88, 1-(3,5-difluorophenyl)-5,5-difluoro-3-(trifluoromethyl)-4,5,6,7-tetrahydro-1H-indazol-4-ol] | > 1500 |
| OC1c2c(C(F)(F)F)nn(-c3cc(F)cc(Cl)c3)c2CCC1(F)F (stereo not shown) [Example 90, 1-(3-chloro-5-fluorophenyl)-5,5-difluoro-3-(trifluoromethyl)-4,5,6,7-tetrahydro-1H-indazol-4-ol] | > 1500 |
| N#Cc1cc(F)cc(-n2nc(C(F)(F)F)c3c2CCC(F)(F)C3O)c1 (stereo not shown) [Example 92] | > 1500 |
| N#Cc1cn(-c2cc(F)cc(Cl)c2)c2c1C(O)C(F)(F)CC2 (stereo not shown) [Example 96, 1-(3-chloro-5-fluorophenyl)-5,5-difluoro-4-hydroxyl-4,5,6,7-tetrahydro-1H-indol-3-carbonitrile] | ≤ 500 |
| CC1(O)c2c(C(F)(F)F)cn(-c3ccc(F)c(C#N)c3)c2CCC1(F)F (stereo not shown) [Example 100, 5-(5,5-difluoro-4-hydroxyl-4-methyl-3-(trifluoromethyl)-4,5,6,7-tetrahydro-1H-indol-1-yl)-2-fluorobenzonitrile] | ≤ 500 |
| OC1CCCc2c1c(C(F)(F)F)cn2-c1ccc(F)c(C(F)F)c1 (stereo not shown) [Example 108, 1-(3-(difluoromethyl)-4-fluorophenyl)-3-(trifluoromethyl)-4,5,6,7-tetrahydro-1H-indol-4-ol] | ≤ 500 |
| OC1c2c(C(F)(F)F)cn(-c3ccc(Cl)cc3)c2CC(F)C1F (stereo not drawn) [Example 130, l-(4-chlorophenyl)-5,6-difluoro-3-(trifluoromethyl)-4,5,6,7-tetrahydro-1H-indol-4-ol] | ≤ 500 |
| OC1c2c(C(F)(F)F)cn(-c3cncc(F)c3)c2CCC1(F)F (stereo not shown) [Example 133] | 500 to 1500 |
| CS(=O)(=O)c1cn(-c2ccc(F)c(C#N)c2)c2c1[C@H](O)C(F)(F)CC2 [Example 134, (S)-5-(5,5-difluoro-4-hydroxy-3-(methylsulfonyl)-4,5,6,7-tetrahydro-1H-indol-1-yl)-2-fluorobenzonitrile] | ≤ 500 |
| OC1c2c(C(F)(F)F)cn(-c3cc(F)cc(Cl)c3)c2C(F)CC1F (stereo not shown) [Example 141] | ≤ 500 |
| OC1c2c(C(F)(F)F)cn(-c3cc(F)cc(Cl)c3)c2CCC1F (stereo not shown) [Example 142, 1-(3-chloro-5-fluorophenyl)-5-fluoro-3-(trifluoromethyl)-4,5,6,7-tetrahydro-1H-indol-4-ol] | ≤ 500 |
| OC1c2c(-c3ccccc3)cn(-c3cc(F)cc(Cl)c3)c2CCC1(F)F (stereo not shown) [Example 145] | 1500 to 10000 |
| N#Cc1cc(Cl)cc(-n2cc(C(F)(F)F)c3c2CCC(F)(F)C3O)c1 (stereo not shown) [Example 154, 3-chloro-5-(5,5-difluoro-4-hydroxy-3-(trifluoromethyl)-4,5,6,7-tetrahydro-1H-indol-1-yl)benzonitrile] | ≤ 500 |
| CC1Cc2c(c(C(F)(F)F)cn2-c2ccc(F)c(C#N)c2)C(O)C1(F)F (stereo not shown) [Example 179, 5-(5,5-difluoro-4-hydroxy-6-methyl-3-(trifluoromethyl)-4,5,6,7-tetrahydro-1H-indol-1-yl)-2-fluorobenzonitrile] | 500 to 1500 |
| CC1Cc2c(c(C(F)(F)F)cn2-c2ccc(F)c(C#N)c2)[C@H](O)C1(F)F (stereo partly shown) [Example 180] | 500 to 1500 |

Same assay, conditions: Homo sapiens, 786-0, 24 h, 24 hours incubation, VEGFA in culture supernatant by ELISA, numeric values

| IC50 [nM] | Compound |
| --- | --- |
| 16.2 | N#Cc1cc(F)cc(-c2cc(C(F)(F)F)c3n2CCC(F)(F)C3O)c1 (stereo not shown) [Example 77, 3-(7,7-difluoro-8-hydroxy-1-(trifluoromethyl)-5,6,7,8-tetrahydroindolizin-3-yl)-5-fluorobenzonitrile] |
| 46.1 | OC1c2c(C(F)(F)F)cn(-c3ccc(F)cc3)c2CCC1(F)F (stereo not shown) [Example 160, 5,5-difluoro-1-(4-fluorophenyl)-3-(trifluoromethyl)-4,5,6,7-tetrahydro-1H-indol-4-ol] |

Continued, compound first:

| Compound | IC50 [nM] |
| --- | --- |
| OC1c2c(C(F)(F)F)cn(-c3cc(F)cc(Br)c3)c2CCC1(F)F (stereo not shown) [Example 22] | 55.4 |
| OC1c2c(C(F)(F)F)cc(-c3cc(F)cc(Cl)c3)n2CCC1(F)F (stereo not shown) [Example 71, 3-(3-chloro-5-fluoropheny1)-7,7-difluoro-1-(trifluoromethyl)-5,6,7,8-tetrahydroindolizin-8-ol] | 13.8 |
| N#Cc1ccc(-n2cc(C(F)(F)F)c3c2CCC(F)(F)C3O)cc1F (stereo not shown) [Example 122, 4-(5,5-difluoro-4-hydroxy-3-(trifluoromethyl)-4,5,6,7-tetrahydro-1H-indol-1-yl)-2-fluorobenzonitrile] | 42.6 |
| N#Cc1cc(-n2cc(C(F)(F)F)c3c2CCC(F)(F)C3O)ccc1Cl (stereo not shown) [Example 137] | 42.1 |
